In paper PMC8286840, “Identifying SARS-CoV-2 antiviral compounds by screening for small molecule inhibitors of Nsp3 papain-like protease” (Biochemical Journal, 2021):
Structures can show the parent of a compound that is named as a salt. Where two headings read alike, the source gives them in different places.

Columns and labels:
[1] = molecular target: T1, SARS-CoV-2 PLpro (nsp3 1564–1878) (Severe acute respiratory syndrome coronavirus 2, UniProt P0DTD1); assay: biochemical; set-up: FRET-quenched peptide (Pro3) cleavage by PLpro, 10 min pre-incubation, slope over 20 min, normalised to no-compound control; settings: high concentration screen, read-out: % of control remaining
[2] = molecular target: T1, SARS-CoV-2 PLpro (nsp3 1564–1878); assay: biochemical; set-up: FRET-quenched peptide (Pro3) cleavage by PLpro, 10 min pre-incubation, slope over 20 min, normalised to no-compound control; settings: low concentration screen, read-out: % of control remaining

COCc1nc2c([nH]1)c(=O)n(C)c(=O)n2CC(C)C [8-Methoxymethyl-3-isobutyl-1-methylxanthine]
remaining activity at 3.75 µM ([1]; Well no.=970): 102%
remaining activity at 1.25 µM ([2]; Well no.=970): 103%

CC(=O)Nc1ccc(CC(=O)O)cc1 [Actarit]
remaining activity at 3.75 µM ([1]; Well no.=1907): 95.2%
remaining activity at 1.25 µM ([2]; Well no.=1907): 96.1%

CC(C)(C)NCC(O)c1ccc(O)c(CO)c1 (stereo not shown) [Salbutamol (hemisulfate)]
remaining activity at 3.75 µM ([1]; Well no.=7577): 96.7%
remaining activity at 1.25 µM ([2]; Well no.=7577): 95.6%

COc1nc(C)cnc1NS(=O)(=O)c1cccnc1-c1ccc(-c2nnco2)cc1 [Zibotentan]
remaining activity at 3.75 µM ([1]; Well no.=6318): 98.2%
remaining activity at 1.25 µM ([2]; Well no.=6318): 98.5%

Cc1cnc(NC(=O)C2=C(O)c3ccccc3S(=O)(=O)N2C)s1 [Meloxicam sodium]
remaining activity at 3.75 µM ([1]; Well no.=974): 99.2%
remaining activity at 1.25 µM ([2]; Well no.=974): 98.2%

NS(=O)(=O)Cc1noc2ccccc12 [Zonisamide]
remaining activity at 3.75 µM ([1]; Well no.=1879): 96.4%
remaining activity at 1.25 µM ([2]; Well no.=1879): 94.7%

NCCc1c[nH]cn1 [Histamine]
remaining activity at 3.75 µM ([1]; Well no.=6665): 103%
remaining activity at 3.75 µM ([1]; Well no.=7059): 109%
remaining activity at 1.25 µM ([2]; Well no.=6665): 105%
remaining activity at 1.25 µM ([2]; Well no.=7059): 102%

NC(N)=NCCNS(=O)(=O)c1cccc2cnccc12 [HA 1004, Dihydrochloride]
remaining activity at 3.75 µM ([1]; Well no.=2433): 108%
remaining activity at 1.25 µM ([2]; Well no.=2433): 111%

C[C@]12C=CC(=O)C=C1CC[C@@H]1[C@@H]2[C@@H](O)C[C@@]2(C)[C@H]1CC[C@]2(O)C(=O)CO [Prednisolone]
remaining activity at 3.75 µM ([1]; Well no.=6605): 102%
remaining activity at 1.25 µM ([2]; Well no.=2141): 99.3%
remaining activity at 1.25 µM ([2]; Well no.=6605): 102%

CC(=O)Oc1ccccc1C(=O)Oc1ccc(CO[N+](=O)[O-])cc1 [NCX 4040]
remaining activity at 3.75 µM ([1]; Well no.=6087): 99.2%
remaining activity at 1.25 µM ([2]; Well no.=6087): 99.1%

CCN1C[C@]2(C)CC[C@H](OC)[C@@]34C1[C@]1(OCO[C@@]15C[C@H](OC)[C@H]1C[C@]3(O)[C@@H]5[C@H]1OC)[C@@H](OC(C)=O)[C@H]24 [Deltaline]
remaining activity at 3.75 µM ([1]; Well no.=3111): 103%
remaining activity at 1.25 µM ([2]; Well no.=3111): 101%

Cc1[nH]c2ccc(Cl)cc2c1C1=CCNCC1 [EMD386088]
remaining activity at 3.75 µM ([1]; Well no.=5430): 97.4%
remaining activity at 1.25 µM ([2]; Well no.=5430): 95.7%

Cc1ccc(O)c(N=Nc2ccccc2)n1 [SIB 1757]
remaining activity at 3.75 µM ([1]; Well no.=1371): 102%
remaining activity at 1.25 µM ([2]; Well no.=1371): 99.7%

O=C(O)c1nn(Cc2ccc(Cl)cc2Cl)c2ccccc12 [Lonidamine]
remaining activity at 3.75 µM ([1]; Well no.=1121): 97%
remaining activity at 1.25 µM ([2]; Well no.=1121): 92.8%

COCCc1ccc(OCC(O)CNC(C)C)cc1 (stereo not shown) [Metoprolol (Succinate)]
remaining activity at 3.75 µM ([1]; Well no.=7475): 95.9%
remaining activity at 1.25 µM ([2]; Well no.=7475): 94.3%

NC(=O)c1cc(S(=O)(=O)Nc2ccc3cc(C4CC4)[nH]c3c2)ccc1O [CD73-IN-1]
remaining activity at 3.75 µM ([1]; Well no.=8325): 94.5%
remaining activity at 1.25 µM ([2]; Well no.=8325): 95.7%

COc1cc2nc(N3CCN(C(=O)c4ccco4)CC3)nc(N)c2cc1OC [Prazosin.HCl]
remaining activity at 3.75 µM ([1]; Well no.=1689): 100%
remaining activity at 1.25 µM ([2]; Well no.=1689): 103%

CCCN(CCC)CC1CCCCN1CCNC(=O)N1c2ccccc2C(=O)Nc2cccnc21 (stereo not shown) [N-(2-{2-[(dipropylamino)methyl]-1-piperidinyl}ethyl)-6-oxo-5,6-dihydro-11H-pyrido[2,3-b][1,4]benzodiazepine-11-carboxamide]
remaining activity at 3.75 µM ([1]; Well no.=5609): 101%
remaining activity at 1.25 µM ([2]; Well no.=5609): 101%

COc1ccc2c(c1)c(CC(=O)N1CCOCC1)c(C)n2C(=O)c1ccc(Cl)cc1 [BML-190]
remaining activity at 3.75 µM ([1]; Well no.=4328): 92.3%
remaining activity at 3.75 µM ([1]; Well no.=8379): 97.9%
remaining activity at 1.25 µM ([2]; Well no.=4328): 97.5%
remaining activity at 1.25 µM ([2]; Well no.=8379): 96.7%

CCCC(=O)Oc1ccc2[nH]c(C(=O)c3cc4ccccc4[nH]3)cc2c1 [PDGF Receptor Tyrosine Kinase Inhibitor II]
remaining activity at 3.75 µM ([1]; Well no.=2503): 99.2%
remaining activity at 1.25 µM ([2]; Well no.=2503): 101%

C[C@@H]1O[C@@H](O[C@H]2[C@H](Oc3cc(O)c(C(=O)CCc4ccc(O)cc4)c(O)c3)O[C@H](CO)[C@@H](O)[C@@H]2O)[C@H](O)[C@H](O)[C@H]1O [Naringin Dihydrochalcone]
remaining activity at 3.75 µM ([1]; Well no.=8148): 97.1%
remaining activity at 1.25 µM ([2]; Well no.=8148): 106%

Cc1ccc2nc(N)[nH]c(=O)c2c1Sc1ccncc1 [Nolatrexed dihydrochloride]
remaining activity at 3.75 µM ([1]; Well no.=6980): 100%
remaining activity at 1.25 µM ([2]; Well no.=6980): 103%

Cc1ccc2nc(CN(CCN(Cc3nc4ccc(C)cc4[nH]3)Cc3nc4ccc(C)cc4[nH]3)Cc3nc4ccc(C)cc4[nH]3)[nH]c2c1 [NSC348884]
remaining activity at 3.75 µM ([1]; Well no.=6442): 98.1%
remaining activity at 1.25 µM ([2]; Well no.=6442): 105%

O[C@H](c1cc(C(F)(F)F)nc2c(C(F)(F)F)cccc12)[C@@H]1CCCCN1 [(R)-[2,8-bis(trifluoromethyl)-4-quinolinyl][(2S)-2-piperidinyl]methanol hydrochloride]
remaining activity at 3.75 µM ([1]; Well no.=5875): 113%
remaining activity at 1.25 µM ([2]; Well no.=5875): 105%

c1ccc2c3c([nH]c2c1)[C@H]1[C@@H]2CC[C@@H]([C@@H]4CCCN[C@@H]42)N1CC3
remaining activity at 3.75 µM ([1]; Well no.=3163): 103%
remaining activity at 1.25 µM ([2]; Well no.=3163): 105%

Cc1ccc(F)c(NC(=O)Nc2ccc(-c3cccc4[nH]nc(N)c34)cc2)c1 [ABT-869]
remaining activity at 3.75 µM ([1]; Well no.=2740): 93.3%
remaining activity at 1.25 µM ([2]; Well no.=2740): 94.6%

COc1cc2c(=O)c(-c3ccc(O)cc3)coc2cc1O [Glycitein]
remaining activity at 3.75 µM ([1]; Well no.=6248): 101%
remaining activity at 1.25 µM ([2]; Well no.=6248): 98.2%

CC(=O)C1=C(O)C(=O)N(c2ccc(Cl)cc2F)[C@@H]1C1CCCCC1 [CCR2-RA-[R]]
remaining activity at 3.75 µM ([1]; Well no.=8118): 95.9%
remaining activity at 3.75 µM ([1]; Well no.=8229): 91.4%
remaining activity at 1.25 µM ([2]; Well no.=8118): 100%
remaining activity at 1.25 µM ([2]; Well no.=8229): 96.6%

COc1ccc(-c2cc(=O)c3c(O)cc(O)cc3o2)cc1O [Diosmetine]
remaining activity at 3.75 µM ([1]; Well no.=3573): 97.7%
remaining activity at 1.25 µM ([2]; Well no.=3573): 97.4%

O=C1N[C@H](C(=O)O)CS1 [Procysteine]
remaining activity at 3.75 µM ([1]; Well no.=3897): 103%
remaining activity at 1.25 µM ([2]; Well no.=3897): 104%

CCOC(=O)[C@H](CCc1ccccc1)N[C@@H](C)C(=O)N1CCC[C@H]1C(=O)O [(2Z)-2-butenedioic acid compound with (2S)-1-((2S)-2-{[(1S)-1-(ethoxycarbonyl)-3-phenylpropyl]amino}propanoyl)-2-pyrrolidinecarboxylic acid (1:1)]
remaining activity at 3.75 µM ([1]; Well no.=5659): 101%
remaining activity at 1.25 µM ([2]; Well no.=5659): 102%

CC[N+](C)(CC)CCOC(=O)C(O)(c1ccccc1)c1ccccc1 [Methylbenactyzium Bromide]
remaining activity at 3.75 µM ([1]; Well no.=7773): 94.7%
remaining activity at 1.25 µM ([2]; Well no.=7773): 101%

CCCCCCCCCCC/C=C\CCCCCC(=O)O [7(Z)-Nonadecenoic acid]
remaining activity at 3.75 µM ([1]; Well no.=4364): 100%
remaining activity at 1.25 µM ([2]; Well no.=4364): 107%
